The target in one assay is T1, α5β2γ2 GABAA receptor (Homo sapiens, UniProt P31644+P47870).
T1 construct: expressed in transfected cells
The experiment in a line: FLIPR modulation of GABA response in cells expressing GABAA receptor subtype. As to conditions: in presence of GABA, — = value not measurable. Type of assay: cell-based. On the procedure:
(§1) Cells expressing the indicated GABAA receptor subtype were exposed to gamma-aminobutyric acid in the presence of varying concentrations of either CV-10155 or SPNC-019, calcium flux was measured using a fluorometric imaging plate reader (FLIPR), and EC50 values for compounds were determined.

The next assay deals with T2, α5β3γ2 GABAA receptor (Homo sapiens, UniProt P28472+P31644).
T2 construct: expressed in transfected cells
T2 sequence (P31644 32-462): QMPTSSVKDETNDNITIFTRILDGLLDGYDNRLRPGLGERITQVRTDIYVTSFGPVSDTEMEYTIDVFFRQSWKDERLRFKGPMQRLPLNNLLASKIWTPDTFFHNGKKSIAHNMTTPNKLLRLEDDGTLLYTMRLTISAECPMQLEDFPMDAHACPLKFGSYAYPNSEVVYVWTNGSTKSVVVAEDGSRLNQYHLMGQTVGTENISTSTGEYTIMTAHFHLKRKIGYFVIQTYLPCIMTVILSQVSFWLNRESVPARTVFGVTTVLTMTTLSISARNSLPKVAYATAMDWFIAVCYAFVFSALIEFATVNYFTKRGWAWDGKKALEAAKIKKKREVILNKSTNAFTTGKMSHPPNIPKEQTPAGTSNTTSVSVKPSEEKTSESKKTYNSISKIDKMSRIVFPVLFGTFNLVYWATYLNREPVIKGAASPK
T2 sequence (P28472 26-473): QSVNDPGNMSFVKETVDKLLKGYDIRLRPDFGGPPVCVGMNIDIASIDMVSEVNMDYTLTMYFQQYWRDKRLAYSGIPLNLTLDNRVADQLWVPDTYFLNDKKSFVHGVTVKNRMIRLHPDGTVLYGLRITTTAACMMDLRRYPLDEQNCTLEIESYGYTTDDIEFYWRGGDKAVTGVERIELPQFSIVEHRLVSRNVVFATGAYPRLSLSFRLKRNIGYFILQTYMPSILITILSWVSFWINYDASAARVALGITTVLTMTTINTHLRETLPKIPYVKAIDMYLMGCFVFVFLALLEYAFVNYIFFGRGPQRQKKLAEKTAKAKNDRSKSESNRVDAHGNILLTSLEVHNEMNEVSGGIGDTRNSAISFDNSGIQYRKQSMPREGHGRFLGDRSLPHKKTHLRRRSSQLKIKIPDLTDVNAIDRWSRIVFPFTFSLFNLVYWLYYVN
T2 sequence (P18507 40-475 partner): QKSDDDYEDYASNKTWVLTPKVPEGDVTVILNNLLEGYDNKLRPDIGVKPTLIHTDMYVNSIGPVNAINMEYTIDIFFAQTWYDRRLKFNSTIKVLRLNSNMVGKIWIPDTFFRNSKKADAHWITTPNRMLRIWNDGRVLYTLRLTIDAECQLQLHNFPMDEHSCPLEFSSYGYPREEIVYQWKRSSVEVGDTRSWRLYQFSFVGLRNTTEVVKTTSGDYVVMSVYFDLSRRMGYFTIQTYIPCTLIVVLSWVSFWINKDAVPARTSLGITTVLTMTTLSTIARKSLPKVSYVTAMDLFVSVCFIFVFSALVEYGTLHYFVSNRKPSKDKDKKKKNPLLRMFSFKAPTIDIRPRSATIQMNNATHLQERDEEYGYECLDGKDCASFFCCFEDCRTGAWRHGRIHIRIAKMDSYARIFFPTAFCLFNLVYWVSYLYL
Described as above. It is filed as cell-based. As to conditions: in presence of GABA, — = value not measurable. Here is the method: as §1

Another assay deals with T3, α6β3γ2 GABAA receptor (Homo sapiens, UniProt P28472+Q16445).
T3 construct: expressed in transfected cells
T3 sequence (Q16445 20-453): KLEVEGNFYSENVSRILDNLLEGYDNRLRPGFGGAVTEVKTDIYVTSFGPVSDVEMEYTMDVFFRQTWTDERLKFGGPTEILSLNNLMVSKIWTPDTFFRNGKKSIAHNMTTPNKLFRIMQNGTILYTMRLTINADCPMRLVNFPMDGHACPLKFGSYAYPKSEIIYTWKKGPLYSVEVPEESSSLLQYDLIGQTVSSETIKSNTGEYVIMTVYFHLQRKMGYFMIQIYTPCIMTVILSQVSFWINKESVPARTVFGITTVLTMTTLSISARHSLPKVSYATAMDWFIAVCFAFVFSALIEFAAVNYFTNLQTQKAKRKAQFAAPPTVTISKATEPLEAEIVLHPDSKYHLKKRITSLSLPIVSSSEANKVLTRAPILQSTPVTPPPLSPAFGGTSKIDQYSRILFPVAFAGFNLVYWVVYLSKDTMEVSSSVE
T3 sequence (P28472 26-473): as the sequence (P28472 26-473) above
T3 sequence (P18507 40-475 partner): as the sequence (P18507 40-475 partner) above
Described as above. As to conditions: in presence of GABA, — = value not measurable. It is filed as cell-based. Here is the method:
as §1

For the next assay, the system named is GABAA receptor subtypes. Kind of assay: FLIPR panel of 18 GABAA receptor subtypes. Type of assay: cell-based. As to conditions: for modulating activity across GABAA receptor subtypes tested: 18 subtypes, FLIPR. On the procedure: as §1
The results further indicate that the isomeric purity of compositions containing compounds of Formula (I) greatly impacts the utility of such compositions as therapeutic agents.

The target of assay [1] is picrotoxin binding site of GABAA receptors. The note with it: membranes from cortices of rat brains; Table 1 of WO 2016/061527; read-out: IC50 in the TBPS displacement assay; cited from earlier work.
The target in assay [2] is T4, α4β3δ GABAA receptor (Homo sapiens, UniProt P28472+P48169). Also noted: expressed in transfected cells; host or cells: CHO cells (transient). As to conditions: 10 μM steroid, GABA 2 μM (EC20), CHO cells, Table 2 of WO 2016/061527; cited from earlier work.
T4 sequence (P48169 36-554): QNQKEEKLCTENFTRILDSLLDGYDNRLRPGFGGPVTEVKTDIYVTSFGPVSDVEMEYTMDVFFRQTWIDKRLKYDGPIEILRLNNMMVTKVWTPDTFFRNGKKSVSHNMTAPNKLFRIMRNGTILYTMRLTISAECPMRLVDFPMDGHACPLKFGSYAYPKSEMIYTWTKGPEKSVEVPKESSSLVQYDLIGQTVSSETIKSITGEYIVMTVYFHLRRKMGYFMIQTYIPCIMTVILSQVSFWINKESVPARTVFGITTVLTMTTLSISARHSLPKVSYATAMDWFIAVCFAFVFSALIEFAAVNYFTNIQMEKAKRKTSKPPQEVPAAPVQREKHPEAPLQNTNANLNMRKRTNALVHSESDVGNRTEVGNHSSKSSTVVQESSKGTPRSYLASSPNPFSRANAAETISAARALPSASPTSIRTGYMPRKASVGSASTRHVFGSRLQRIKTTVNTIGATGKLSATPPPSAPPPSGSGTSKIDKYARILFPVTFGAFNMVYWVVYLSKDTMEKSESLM
T4 sequence (P28472 26-473): as the sequence (P28472 26-473) above
T4 sequence (O14764 25-452 partner): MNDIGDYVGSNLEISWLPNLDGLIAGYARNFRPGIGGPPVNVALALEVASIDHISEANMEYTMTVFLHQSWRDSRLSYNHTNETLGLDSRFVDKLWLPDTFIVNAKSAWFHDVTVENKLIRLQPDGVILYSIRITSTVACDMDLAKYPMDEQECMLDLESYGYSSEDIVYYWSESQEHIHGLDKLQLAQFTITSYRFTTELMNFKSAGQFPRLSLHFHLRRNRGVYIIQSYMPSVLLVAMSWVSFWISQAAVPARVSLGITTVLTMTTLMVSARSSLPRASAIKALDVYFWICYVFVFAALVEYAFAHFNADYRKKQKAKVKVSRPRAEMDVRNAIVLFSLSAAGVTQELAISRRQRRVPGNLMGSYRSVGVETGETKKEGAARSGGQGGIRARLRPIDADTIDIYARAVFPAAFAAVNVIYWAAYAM
The target in assay [3] is T5, α1β2γ2 GABAA receptor (Homo sapiens, UniProt P14867+P47870).
T5 construct: expressed in transfected cells
T5 sequence (P14867 28-456): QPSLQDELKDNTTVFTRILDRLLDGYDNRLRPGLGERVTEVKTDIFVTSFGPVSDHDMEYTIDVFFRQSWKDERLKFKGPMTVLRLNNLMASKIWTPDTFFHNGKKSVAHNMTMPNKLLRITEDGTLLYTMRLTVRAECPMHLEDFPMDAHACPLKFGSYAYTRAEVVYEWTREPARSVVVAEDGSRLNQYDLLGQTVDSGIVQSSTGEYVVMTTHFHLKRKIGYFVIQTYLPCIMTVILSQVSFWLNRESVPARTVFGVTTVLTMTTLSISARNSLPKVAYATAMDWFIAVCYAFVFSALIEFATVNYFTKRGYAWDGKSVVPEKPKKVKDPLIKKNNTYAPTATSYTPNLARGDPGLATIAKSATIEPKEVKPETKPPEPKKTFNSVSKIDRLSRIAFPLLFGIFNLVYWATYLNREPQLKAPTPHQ
T5 sequence (P47870 25-512 limits assumed): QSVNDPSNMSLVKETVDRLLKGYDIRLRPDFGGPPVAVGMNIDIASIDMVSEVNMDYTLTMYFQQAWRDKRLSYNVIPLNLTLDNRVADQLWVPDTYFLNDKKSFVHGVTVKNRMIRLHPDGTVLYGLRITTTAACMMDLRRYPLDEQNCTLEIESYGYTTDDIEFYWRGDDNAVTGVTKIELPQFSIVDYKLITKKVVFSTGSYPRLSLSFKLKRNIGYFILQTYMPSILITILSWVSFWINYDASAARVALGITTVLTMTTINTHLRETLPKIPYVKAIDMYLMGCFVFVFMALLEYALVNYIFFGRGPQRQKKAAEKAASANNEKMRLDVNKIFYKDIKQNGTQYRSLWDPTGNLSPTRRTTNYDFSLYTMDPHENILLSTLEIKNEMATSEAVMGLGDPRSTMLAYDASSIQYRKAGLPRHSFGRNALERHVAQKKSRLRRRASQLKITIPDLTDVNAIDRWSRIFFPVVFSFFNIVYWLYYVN
T5 sequence (P18507 40-475 partner): as the sequence (P18507 40-475 partner) above
As to conditions: 10 μM steroid, GABA 2 μM (EC20), LTK cells, Table 2 of WO 2016/061527; cited from earlier work.

Assay [4] concerns the target T4, α4β3δ GABAA receptor. The experiment in a line: FLIPR modulation of GABA response in cells expressing GABAA receptor subtype. Type of assay: cell-based. Also noted: expressed in transfected cells. As to conditions: in presence of GABA, — = value not measurable. Here is the method:
as §1

The target in assay [5] is T5, α1β2γ2 GABAA receptor. Described as above. As to conditions: in presence of GABA, — = value not measurable. It is filed as cell-based. On the procedure: as §1
In another assay the target is T6, α2β3γ2 GABAA receptor (Homo sapiens, UniProt P28472+P47869).
T6 construct: expressed in transfected cells
Described as above. Type of assay: cell-based. The note with it: in presence of GABA, — = value not measurable. Here is the method:
as §1

Another assay has as its target T7, α6β1γ2 GABAA receptor (Homo sapiens, UniProt P18505+Q16445).
T7 construct: expressed in transfected cells
The description is as above. It is filed as cell-based. The note with it: in presence of GABA, — = value not measurable. Here is the method:
as §1

A further assay has as its target T8, α4β1γ2 GABAA receptor (Homo sapiens, UniProt P18505+P48169).
T8 construct: expressed in transfected cells
The description is as above. As to conditions: in presence of GABA, — = value not measurable. It is filed as cell-based. On the procedure:
as §1

Another assay concerns the target T9, α3β2γ2 GABAA receptor (Homo sapiens, UniProt P34903+P47870).
T9 construct: expressed in transfected cells
The assay is described as above. It is filed as cell-based. As to conditions: in presence of GABA, — = value not measurable. Here is the method:
as §1

Another assay deals with T10, α4β3γ2 GABAA receptor (Homo sapiens, UniProt P28472+P48169).
T10 construct: expressed in transfected cells
Described as above. It is filed as cell-based. The note with it: in presence of GABA, — = value not measurable. Here is the method:
as §1

A further assay has as its target T11, α1β1γ2 GABAA receptor (Homo sapiens, UniProt P14867+P18505).
T11 construct: expressed in transfected cells
Described as above. It is filed as cell-based. As to conditions: in presence of GABA, — = value not measurable. On the procedure: as §1

A further assay concerns the target T12, α3β1γ2 GABAA receptor (Homo sapiens, UniProt P18505+P34903).
T12 construct: expressed in transfected cells
The assay is described as above. It is filed as cell-based. As to conditions: in presence of GABA, — = value not measurable. On the procedure:
as §1

In a further assay the target is T13, α1β3γ2 GABAA receptor (Homo sapiens, UniProt P14867+P28472).
T13 construct: expressed in transfected cells
The assay is described as above. As to conditions: in presence of GABA, — = value not measurable. Type of assay: cell-based. On the procedure:
as §1

The target in a further assay is T14, α6β2γ2 GABAA receptor (Homo sapiens, UniProt P47870+Q16445).
T14 construct: expressed in transfected cells
Described as above. Type of assay: cell-based. The note with it: in presence of GABA, — = value not measurable. On the procedure:
as §1

The next assay addresses T15, α5β1γ2 GABAA receptor (Homo sapiens, UniProt P18505+P31644).
T15 construct: expressed in transfected cells
The assay is described as above. The note with it: in presence of GABA, — = value not measurable. Type of assay: cell-based. Here is the method:
as §1

The target in the next assay is T16, α2β2γ2 GABAA receptor (Homo sapiens, UniProt P47869+P47870).
T16 construct: expressed in transfected cells
The description is as above. It is filed as cell-based. The note with it: in presence of GABA, — = value not measurable. Here is the method: as §1

The target in a further assay is T17, α3β3γ2 GABAA receptor (Homo sapiens, UniProt P28472+P34903).
T17 construct: expressed in transfected cells
The description is as above. It is filed as cell-based. As to conditions: in presence of GABA, — = value not measurable. Here is the method: as §1

The target in the next assay is T18, α2β1γ2 GABAA receptor (Homo sapiens, UniProt P18505+P47869).
T18 construct: expressed in transfected cells
The description is as above. Type of assay: cell-based. As to conditions: in presence of GABA, — = value not measurable. Here is the method:
as §1

Molecules are shown by their SMILES.

T1 sequence (P31644 32-462): as the sequence (P31644 32-462) above
T1 sequence (P47870 25-512 limits assumed): as the sequence (P47870 25-512 limits assumed) above
T1 sequence (P18507 40-475 partner): as the sequence (P18507 40-475 partner) above
T12 sequence (P34903 29-492): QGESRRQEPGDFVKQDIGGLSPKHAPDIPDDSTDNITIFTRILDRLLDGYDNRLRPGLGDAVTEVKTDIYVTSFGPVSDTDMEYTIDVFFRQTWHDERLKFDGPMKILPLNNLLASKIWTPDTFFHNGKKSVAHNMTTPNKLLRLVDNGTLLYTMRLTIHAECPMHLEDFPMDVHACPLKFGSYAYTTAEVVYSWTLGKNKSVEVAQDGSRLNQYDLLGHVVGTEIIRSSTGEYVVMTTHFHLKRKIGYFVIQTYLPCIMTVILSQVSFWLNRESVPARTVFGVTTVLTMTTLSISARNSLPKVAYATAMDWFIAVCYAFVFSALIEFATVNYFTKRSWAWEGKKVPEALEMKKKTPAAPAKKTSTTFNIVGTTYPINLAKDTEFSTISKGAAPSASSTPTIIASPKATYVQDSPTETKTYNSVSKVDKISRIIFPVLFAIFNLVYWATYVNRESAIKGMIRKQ
T12 sequence (P18505 26-474): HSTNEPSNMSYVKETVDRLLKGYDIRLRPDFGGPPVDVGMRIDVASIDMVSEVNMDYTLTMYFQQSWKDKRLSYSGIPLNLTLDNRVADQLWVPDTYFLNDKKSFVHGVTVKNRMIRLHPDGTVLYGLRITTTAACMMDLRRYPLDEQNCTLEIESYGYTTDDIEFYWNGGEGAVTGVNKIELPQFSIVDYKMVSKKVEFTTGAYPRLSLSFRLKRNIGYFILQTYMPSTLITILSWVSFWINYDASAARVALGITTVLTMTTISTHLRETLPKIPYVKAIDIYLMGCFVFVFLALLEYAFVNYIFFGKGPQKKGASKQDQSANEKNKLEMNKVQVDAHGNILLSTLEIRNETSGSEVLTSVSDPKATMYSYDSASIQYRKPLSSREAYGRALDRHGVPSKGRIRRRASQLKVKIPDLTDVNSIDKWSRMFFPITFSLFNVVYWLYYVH
T12 sequence (P18507 40-475 partner): as the sequence (P18507 40-475 partner) above

As for `C[C@]1(O)CC[C@@]2(C)[C@@H](CC[C@@H]3[C@@H]2CC[C@]2(C)[C@@H](C(=O)Cn4cc(C#N)cn4)CC[C@@H]32)C1` [SPNC-019, reference compound], the EC50 worked out at 1.2 µM at α5β2γ2 GABAA receptor, 1.81 µM at α5β3γ2 GABAA receptor and 1.77 µM on α6β3γ2 GABAA receptor. In addition, the “modulating activity across GABAA receptor subtypes tested” value with GABAA receptor subtypes is reported as “no modulating activity in 15 of the 18 GABAA receptor subtypes tested”.

Consider `C[C@@]1(O)CC[C@@]2(C)[C@@H](CC[C@@H]3[C@@H]2CC[C@]2(C)[C@@H](C(=O)Cn4ccc(C#N)n4)CC[C@@H]32)C1` [Compound 121], for which, in assay [1], the IC50 was 0.01 to 0.05 µM. Besides, the “efficacy (relative potentiation of GABA-mediated conductance)” value at α4β3δ GABAA receptor [2] and on α1β2γ2 GABAA receptor [3] was greater than 500% each time.

As to `C[C@@]1(O)CC[C@@]2(C)[C@@H](CC[C@@H]3[C@@H]2CC[C@]2(C)[C@@H](C(=O)Cn4cc(C#N)cn4)CC[C@@H]32)C1` [CV-10155, 1-[2-[(3R,5S,8R,9S,10S,13S,14S,17S)-3-hydroxy-3,10,13-trimethyl-1,2,4,5,6,7,8,9,11,12,14,15,16,17-tetradecahydrocyclopenta[a]phenanthren-17-yl]-2-oxoethyl]pyrazole-4-carbonitrile], the EC50 at α4β3δ GABAA receptor [4] amounted to 0.106 µM; on α1β2γ2 GABAA receptor [5], 0.839 µM; at α2β3γ2 GABAA receptor, 0.296 µM; at α6β1γ2 GABAA receptor, 0.359 µM; on α4β1γ2 GABAA receptor, 0.204 µM; at α5β2γ2 GABAA receptor, 0.359 µM. Besides, the EC50 on α5β3γ2 GABAA receptor worked out at 1.3 µM; at α3β2γ2 GABAA receptor, 1.82 µM; on α4β3γ2 GABAA receptor, 1.33 µM; on α1β1γ2 GABAA receptor, 0.521 µM; at α3β1γ2 GABAA receptor it was 0.946 µM; on α1β3γ2 GABAA receptor, 0.52 µM. The EC50 at α6β3γ2 GABAA receptor was 0.245 µM; at α6β2γ2 GABAA receptor it was 1.1 µM; on α5β1γ2 GABAA receptor, 0.762 µM; on α2β2γ2 GABAA receptor, 0.213 µM; at α3β3γ2 GABAA receptor, 0.273 µM; on α2β1γ2 GABAA receptor, 0.253 µM. Moreover, the “modulating activity across GABAA receptor subtypes tested” value in the assay on GABAA receptor subtypes was “some level of positive allosteric modulating activity in all of the GABAA receptor subtypes tested”. Moreover, the “activity on α4β3δ versus α1β2γ2 GABAA receptors” value in the assay on GABAA receptor subtypes (comparison of Example 1 data) was “substantially more active on α4β3δ GABAA receptors than on α1β2γ2 GABAA receptors”.

For the compound `C[C@@]1(O)CC[C@@]2(C)[C@H](CC[C@@H]3[C@@H]2CC[C@]2(C)[C@@H](C(=O)Cn4cc(C#N)cn4)CC[C@@H]32)C1` [Compound 10], in assay [1], the IC50 is less than 0.01 µM.

The record behind these values is patent US20230210870A1, “METHODS OF TREATING FEMALE HEALTH CONDITIONS RELATED TO SEX HORMONES” (priority 2020, published 2023).
